Experimental data: patent US8629116B2, “Method for inducing a TRIF-bias” (priority 2008, dated 2014)

System: RAW264.7 siRNA cell lines
Test: Cytokine production in stably transfected RAW264.7 siRNA (MyD88, TRIF, LUC) cell lines
Assay type: cell-based, mouse
Settings: for potency for TNFα production: 20 hours
Protocol: Exponentially growing RAW264.7 cells are stably transfected with FuGene 6 by conventional methods in Optimem (Roche, Indianapolis Ind.) with psiRNA-mTICAM1, psiRNA-mMyD88, or psiRNA-LUC (irrelevant control) plasmids containing shRNA sequences for protein knockdown, a Zeocin resistance gene and a GFP coding sequence (InVivoGen, San Diego, Calif.). Transfection efficiency after selection is determined by percent GFP positive cells using the ImageStream.
RNA interference (RNAi) is utilized to disrupt expression of specific genes that are involved in TLR signaling pathways: […] and MyD88. RAW264.7 siRNA cell lines are prepared using commercially available plasmids (Invivogen). These plasmids contain a Zeocin selection marker, a sequence coding for GFP and the sequence coding for shRNA for knockdown. Once the cells are efficiently transfected, stable cell lines are generated through antibiotic selection. Purity of cultures is determined by GFP+ cells within the culture system. An irrelevant plasmid is also used to stably transfect cells as a control.
To determine whether TRIF or MyD88 are required for the cytokine response after stimulation with L and D isomers, stably transfected siRNA cell lines are stimulated for 20 hours (in an assay similar to the MM6 potency assay) or 4 hours (to capture MyD88 induced cytokine responses) and cellular supernatants are assayed for TNFα (MyD88) and IP-10 (TRIF). Twenty hours post-stimulation, the irrelevant control, LUC cell line has a similar IP-10 induction pattern as the wt RAW264.7 cells shown previously. […] When TRIF is intact (in MyD88 knockdown cell lines) the IP-10 levels remain dose responsive and total cytokine is increased above the irrelevant control (LUC). Other assay systems (including human and mouse systems) support the hypothesis that both L and D isomers are efficient at inducing TRIF mediated cytokines.
In order to better discriminate the MyD88 requirement for TNFα production, siRNA knockdown cell lines are examined for TNFα production after four hours of AGP stimulation (FIG. 35). […]

Compound: CCCCCCCCCCCC(CC(=O)NC(COC1OC(CO)C(OP(=O)(O)O)C(OC(=O)CC(CCCCCCCCCCC)OC(=O)CCCCCCCCC)C1NC(=O)CC(CCCCCCCCCCC)OC(=O)CCCCCCCCC)C(=O)O)OC(=O)CCCCCCCCC.CCN(CC)CC (stereo not drawn) [CRX-527]
- potency for TNFα production (MyD88 or TRIF knocked down): same increased potency
- potency at inducing TNFα versus equivalent dose of CRX-547 (four hours): more potent
- potency for TNFα production (irrelevant control (LUC)): more potent
